Assay results as given in patent US11186817B2, “Chemically defined cell culture media additive” (IUCF-HYU (INDUSTRY-UNIVERSITY COOPERATION FOUNDATION …, priority 2014, dated 2021).

Tested on: CHO DG44 cell line
Experiment: Effective concentration range of THF: suspension growth of CHO DG44 in HY-CDM media
Assay type: cell-based, Chinese hamster
Settings: HY-CDM
From the text: 1. Cell line and media: CHO DG44 cell line was used as a DHFR-deficient cell line. The cell line was passaged 80 times or more and suspension adapted in HY-CDM (in-house) media as chemically defined media. The suspension-adapted cell line was used to evaluate the influence of tetrahydrofolate (THF) and dihydrofolate (DHF) and the growth characteristics in commercial chemically defined media. The HY-CDM media were composed of chemically defined components only. Each HY-CDM medium further included a growth factor. HY-CDM media used in Examples 1, 3, and 4 were free of an animal derived lipid mixture, and HY-CDM media used in Example 2 were supplemented with cod liver oil.
2. Cell suspension culture: The cell line was inoculated at a density of 4×10^5 cells/ml and cultured in an Erlenmeyer flask with a 30 ml/125 ml working volume on an orbital shaker at 120 rpm under humidified conditions at 37° C. and 5% CO2. Before inoculation, the cells were centrifuged at 1,000 rpm (×162 g) for 5 min, the supernatant was discarded, and the remaining cells were dispersed into single cells in the heated medium. The cells were passaged three times to minimize the influence of the remaining medium under the experimental conditions. The subcultured cells were evaluated.
3. Density of live cells: The density of live cells was analyzed using a hemocytometer (Neubauer improved bright-line, Marienfeld, Germany), an inverted microscope (CK30, Olympus, Japan), and trypan blue dye exclusion.
In this example, the effective concentration range of THF inducing the suspension growth of the CHO DG44 cell line in the HY-CDM media was evaluated with varying amounts of THF.
To this end, the CHO DG44 cell line was passaged three time at a THF concentration of 0-480 mg/L, and their maximum cell densities and doubling times were measured.

For tetrahydrofolate [THF], the “Doubling time, Average” value (THF 0.0016 mg/L) was 24.7 h, the “Doubling time, Passage 1” value (THF 0.0016 mg/L) was 26.8 h and the “Doubling time, Passage 2” value (THF 0.0016 mg/L) was 27.2 h. The “Doubling time, Passage 3” value (THF 0.0016 mg/L) was 20.3 h, the “Maximum cell density, Average” value (THF 0.0016 mg/L) was 18.9 ×10^5 cells/ml and the “Maximum cell density, Passage 1” value (THF 0.0016 mg/L) was 19.8 ×10^5 cells/ml. For the same substance, the “Maximum cell density, Passage 2” value (THF 0.0016 mg/L) was 18.2 ×10^5 cells/ml, the “Maximum cell density, Passage 3” value (THF 0.0016 mg/L) was 18.8 ×10^5 cells/ml and the “Doubling time, Average” value (THF 0.0031 mg/L) was 24.9 h. For the same substance, the “Doubling time, Passage 1” value (THF 0.0031 mg/L) was 27.1 h, the “Doubling time, Passage 2” value (THF 0.0031 mg/L) was 27.1 h and the “Doubling time, Passage 3” value (THF 0.0031 mg/L) was 20.6 h. For the same substance, the “Maximum cell density, Average” value (THF 0.0031 mg/L) was 19.8 ×10^5 cells/ml, the “Maximum cell density, Passage 1” value (THF 0.0031 mg/L) was 20.6 ×10^5 cells/ml and the “Maximum cell density, Passage 2” value (THF 0.0031 mg/L) was 18.2 ×10^5 cells/ml. For the same substance, the “Maximum cell density, Passage 3” value (THF 0.0031 mg/L) was 20.5 ×10^5 cells/ml, the “Doubling time, Average” value (THF 0.0063 mg/L) was 23.6 h and the “Doubling time, Passage 1” value (THF 0.0063 mg/L) was 26.4 h. The “Doubling time, Passage 2” value (THF 0.0063 mg/L) was 24.3 h, the “Doubling time, Passage 3” value (THF 0.0063 mg/L) was 20.1 h and the “Maximum cell density, Average” value (THF 0.0063 mg/L) was 21.3 ×10^5 cells/ml. For the same substance, the “Maximum cell density, Passage 1” value (THF 0.0063 mg/L) was 21.4 ×10^5 cells/ml, the “Maximum cell density, Passage 2” value (THF 0.0063 mg/L) was 21.2 ×10^5 cells/ml and the “Maximum cell density, Passage 3” value (THF 0.0063 mg/L) was 21.3 ×10^5 cells/ml. For the same substance, the “Doubling time, Average” value (THF 0.0125 mg/L) was 23.5 h, the “Doubling time, Passage 1” value (THF 0.0125 mg/L) was 24.6 h and the “Doubling time, Passage 2” value (THF 0.0125 mg/L) was 25.5 h. The “Doubling time, Passage 3” value (THF 0.0125 mg/L) was 20.3 h, the “Maximum cell density, Average” value (THF 0.0125 mg/L) was 21.5 ×10^5 cells/ml and the “Maximum cell density, Passage 1” value (THF 0.0125 mg/L) was 23.6 ×10^5 cells/ml. For the same substance, the “Maximum cell density, Passage 2” value (THF 0.0125 mg/L) was 18.8 ×10^5 cells/ml, the “Maximum cell density, Passage 3” value (THF 0.0125 mg/L) was 22.0 ×10^5 cells/ml and the “Doubling time, Average” value (THF 0.0250 mg/L) was 22.5 h. For the same substance, the “Doubling time, Passage 1” value (THF 0.0250 mg/L) was 25.8 h, the “Doubling time, Passage 2” value (THF 0.0250 mg/L) was 23.2 h and the “Doubling time, Passage 3” value (THF 0.0250 mg/L) was 18.6 h. For the same substance, the “Maximum cell density, Average” value (THF 0.0250 mg/L) was 20.5 ×10^5 cells/ml, the “Maximum cell density, Passage 1” value (THF 0.0250 mg/L) was 22.4 ×10^5 cells/ml and the “Maximum cell density, Passage 2” value (THF 0.0250 mg/L) was 18.0 ×10^5 cells/ml. The “Maximum cell density, Passage 3” value (THF 0.0250 mg/L) was 21.0 ×10^5 cells/ml, the “Doubling time, Average” value (THF 0.0500 mg/L) was 20.9 h and the “Doubling time, Passage 1” value (THF 0.0500 mg/L) was 22.8 h. The “Doubling time, Passage 2” value (THF 0.0500 mg/L) was 21.7 h, the “Doubling time, Passage 3” value (THF 0.0500 mg/L) was 18.2 h and the “Maximum cell density, Average” value (THF 0.0500 mg/L) was 20.5 ×10^5 cells/ml. The “Maximum cell density, Passage 1” value (THF 0.0500 mg/L) was 22.0 ×10^5 cells/ml, the “Maximum cell density, Passage 2” value (THF 0.0500 mg/L) was 18.5 ×10^5 cells/ml and the “Maximum cell density, Passage 3” value (THF 0.0500 mg/L) was 21.0 ×10^5 cells/ml. For the same substance, the “Doubling time, Average” value (THF 0.1000 mg/L) was 21.2 h, the “Doubling time, Passage 1” value (THF 0.1000 mg/L) was 22.7 h and the “Doubling time, Passage 2” value (THF 0.1000 mg/L) was 22.7 h. For the same substance, the “Doubling time, Passage 3” value (THF 0.1000 mg/L) was 18.2 h, the “Maximum cell density, Average” value (THF 0.1000 mg/L) was 24.8 ×10^5 cells/ml and the “Maximum cell density, Passage 1” value (THF 0.1000 mg/L) was 27.6 ×10^5 cells/ml. The “Maximum cell density, Passage 2” value (THF 0.1000 mg/L) was 21.8 ×10^5 cells/ml, the “Maximum cell density, Passage 3” value (THF 0.1000 mg/L) was 24.9 ×10^5 cells/ml and the “Doubling time, Average” value (THF 0.2000 mg/L) was 20.8 h. The “Doubling time, Passage 1” value (THF 0.2000 mg/L) was 22.7 h, the “Doubling time, Passage 2” value (THF 0.2000 mg/L) was 21.4 h and the “Doubling time, Passage 3” value (THF 0.2000 mg/L) was 18.3 h. The “Maximum cell density, Average” value (THF 0.2000 mg/L) was 25.9 ×10^5 cells/ml, the “Maximum cell density, Passage 1” value (THF 0.2000 mg/L) was 26.6 ×10^5 cells/ml and the “Maximum cell density, Passage 2” value (THF 0.2000 mg/L) was 25.0 ×10^5 cells/ml. The “Maximum cell density, Passage 3” value (THF 0.2000 mg/L) was 26.1 ×10^5 cells/ml, the Cell density increase (THF 0.4 mg/L) was “about 56%” and the “Doubling time, Average” value (THF 0.4000 mg/L) was 22.1 h. The “Doubling time, Passage 1” value (THF 0.4000 mg/L) was 22.7 h.
